From patent publication US20110176998A1, “IMAGING AND THERAPY OF VIRUS-ASSOCIATED TUMORS” (THE JOHNS HOPKINS UNIVERSITY, priority 2007, published 2011)
Where “and” joins values, the source holds several entries; their conditions need not be identical. Equal values may be shown once.

Columns and labels:
BC3 lymphoma (KSHV) = experiment: [125I]FIAU imaging and tissue distribution, BC3 xenograft; type: in vivo, SCID mice
Excerpt: (§1) The approach observed in EBV-associated tumors is also applicable to other KSHV-associated tumors as shown in studies on two primary effusion lymphoma (PEL) cell lines that harbor KSHV. […] Finally, when induction with bortezomib was followed by treatment with [^131I]FIAU tumors regressed (FIG. 19C).

[1] = tested on: Rael Burkitt's lymphoma (EBV); experiment: [125I]FIAU imaging and tissue distribution, Rael xenografts; type: in vivo, SCID mice
Method: Bortezomib was always administered 24 hours before [^125I]FIAU, also intravenously. […] 2 μg/g of bortezomib stimulated the maximum target to non-target signal ratio at 96 hours after treatment in this cell line. The radioactivity depicted by the arrow in FIG. 14B at the 96 hour time point was within the tumor as shown by concurrent ex vivo gamma counting. Similar results were obtained in animals bearing another EBV(+) Burkitt cell line (Rael) xenograft. […] The percentage of injected dose per gram (% ID/g) derived from the images was 1.13±0.01 and 0.70±0.01 at 72 and 96 hours, respectively. Only one mouse was imaged with SPECT-CT, so the standard deviation (SD) values were derived from the multiple slices of each image.

[2] = tested on: EBV(−) osteosarcoma xenografts (V143b); experiment: [125I]FIAU imaging, V143b control tumors; type: in vivo, mice; settings: with or without bortezomib
Excerpt: (§2) Quantitative data were not derived from the images except for once instance that employed SPECT-CT (see below). […] The detector material or scintillator crystal is composed of NaI[Tl], which has a pixel size 2 mm×2 mm×6 mm. […] The static acquisition protocol of the LumaGEM™ software provided with the X-SPECT was used.

[3] = tested on: EBV(+) Burkitt's lymphoma xenografts (Akata); experiment: [125I]FIAU imaging and ex vivo biodistribution, EBV(+) Akata xenografts; type: in vivo, SCID mice; settings: for % ID/g derived from SPECT-CT images, tumor: bortezomib 2 μg/g, one mouse, SD from slices; for % ID/g ± SD, Blood / % ID/g ± SD, Kidney / % ID/g ± SD, Liver / % ID/g ± SD, Muscle / % ID/g ± SD, Spleen / % ID/g ± SD, Tumor: n = 4
Method: 5×10^6 cells were resuspended in 200 μL Matrigel Matrix (ED Biosciences, Bedford, Mass.) and injected subcutaneously near the shoulder of 6-7-week-old male severe combined immunodeficient (SCID) mice.
All work was undertaken in accordance with the regulations of Johns Hopkins Animal Care and Use Committee. Adult male SCID mice (5-6 weeks old) were purchased from the National Cancer Institute (Frederick, Md.). Three days before imaging, all mice received 1 mL intraperitoneal (i.p.) injections of 0.9% NaI solution daily for 3 consecutive days to block the thyroid uptake of free radioiodide. Twenty four hours prior to [^125I]FIAU injection, lytic induction was initiated with bortezomib. Each mouse was injected i.p. with a dose of 2 μg/g of bortezomib. Bortezomib was made fresh in PBS and filter sterilized with a 0.2 μm syringe filter (Millipore, Billerica, Mass.) immediately before each injection. Control mice were injected i.p. with PBS alone. On the day of radiotracer injection, the animals were anesthetized with 2.3 mL/kg of a mixture of 25 mg/mL ketamine and 2 mg/mL acepromazine in 0.9% saline injected i.p. Isoflurane (0.5%-1% at 0.5-1 L/minute) was administered to maintain anesthesia.
Four mice were sacrificed at each indicated time by cervical dislocation. Tumor, liver, spleen, kidney, fat, blood, and muscle were removed and weighed after which the tissue radioactivity was measured using an automated gamma counter. A 0.1 mL sample of blood was also collected. […] The standard deviation (SD) was also calculated.
as §2

[4] = tested on: TK143b osteosarcoma (constitutive EBV TK); experiment: [125I]FIAU imaging and tissue distribution, TK143b tumors
KT gastric cancer (EBV) = experiment: [125I]FIAU imaging and tissue distribution, KT xenograft
BCBL1 lymphoma (KSHV) = experiment: [125I]FIAU imaging and tissue distribution, BCBL1 xenograft; type: in vivo, SCID mice
Excerpt: as §1

[5] = bortezomib induction, 5 days p.i., 5 μCi, N 3
[6] = Rael, bortezomib induction, 4 days p.i., 5 μCi, N 4
[7] = TK143b, constitutive EBV TK, 4 days p.i., 5 μCi, N 3
[8] = KT, bortezomib induction, 4 days p.i., 5 μCi, N 3
[9] = bortezomib induction, 4 days p.i., 5 μCi, N 5

**Q.** Which tumor imaging (BC3 lymphoma (KSHV); after bortezomib) does the source give for `O=c1[nH]c(=O)n([C@@H]2O[C@H](CO)[C@@H](O)[C@@H]2F)cc1[125I]` [[^125I]FIAU, [^125I]2-fluoro-2′-deoxy-beta-D-5-iodouracil-arabinofuranoside] here?
**A.** Its tumor imaging is “allowed imaging”.

**Q.** What about the “% ID/g ± SD, Kidney” value (BC3 lymphoma (KSHV); [5]) of the same compound?
**A.** The value was 0.027 ± 0.003 % ID/g.

**Q.** What about the “% ID/g ± SD, Liver” value (BC3 lymphoma (KSHV); [5]) of the same compound?
**A.** The value was 0.009 ± 0.002 % ID/g.

**Q.** And the “% ID/g ± SD, Muscle” value (BC3 lymphoma (KSHV); [5])?
**A.** The value was 0.008 ± 0.004 % ID/g.

**Q.** And the “% ID/g ± SD, Spleen” value (BC3 lymphoma (KSHV); [5])?
**A.** Its value is 0.008 ± 0.002 % ID/g.

**Q.** What about the “% ID/g ± SD, Tumor” value (BC3 lymphoma (KSHV); [5]) of the same compound?
**A.** Its value is 1.213 ± 0.214 % ID/g.

**Q.** And the “% ID/g ± SD, Kidney” value [1, 6]?
**A.** The value was 0.146 ± .054 % ID/g.

**Q.** And the “% ID/g ± SD, Liver” value [1, 6]?
**A.** Its value is 0.052 ± .027 % ID/g.

**Q.** And the “% ID/g ± SD, Muscle” value [1, 6]?
**A.** Its value is 0.084 ± .012 % ID/g.

**Q.** What about the “% ID/g ± SD, Spleen” value [1, 6] of the same compound?
**A.** The value was 0.064 ± .011 % ID/g.

**Q.** And the “% ID/g ± SD, Tumor” value [1, 6]?
**A.** The value was 1.200 ± 0.356 % ID/g.

**Q.** What about the tumor visualization ([1]; following bortezomib, by 30 hours after radiopharmaceutical injection) of the same compound?
**A.** Its tumor visualization is “clearly visualized”.

**Q.** And the “tumor uptake on imaging” value [2]?
**A.** The value was “No tumor uptake was evident”.

**Q.** And the “% ID/g derived from SPECT-CT images, tumor” value ([3]; 72 hours after radiopharmaceutical)?
**A.** The value was 1.13±0.01 % ID/g.

**Q.** And the “increase of tumor uptake over baseline after bortezomib” value ([3]; 96 h, bortezomib vs PBS)?
**A.** The value was ~22 fold.

**Q.** What about the “% ID/g derived from SPECT-CT images, tumor” value ([3]; 96 hours after radiopharmaceutical) of the same compound?
**A.** Its value is 0.70±0.01 % ID/g.

**Q.** What about the “% ID/g ± SD, Blood” value ([3]; Bortezomib treatment, 96 h) of the same compound?
**A.** Its value is 0.022 ± 0.010 % ID/g.

**Q.** What about the “% ID/g ± SD, Kidney” value ([3]; Bortezomib treatment, 96 h) of the same compound?
**A.** Its value is 0.070 ± 0.010 % ID/g.

**Q.** What about the “% ID/g ± SD, Liver” value ([3]; Bortezomib treatment, 96 h) of the same compound?
**A.** Its value is 0.016 ± 0.002 % ID/g.

**Q.** And the “% ID/g ± SD, Muscle” value ([3]; Bortezomib treatment, 96 h)?
**A.** The value was 0.040 ± 0.005 % ID/g.

**Q.** And the “% ID/g ± SD, Spleen” value ([3]; Bortezomib treatment, 96 h)?
**A.** Its value is 0.060 ± 0.011 % ID/g.

**Q.** And the “% ID/g ± SD, Tumor” value ([3]; Bortezomib treatment, 96 h)?
**A.** The value was 0.85 % ID/g and 0.850 ± 0.102 % ID/g.

**Q.** And the “% ID/g ± SD, Blood” value ([3]; PBS treatment, 96 h)?
**A.** Its value is 0.033 ± 0.009 % ID/g.

**Q.** What about the “% ID/g ± SD, Kidney” value ([3]; PBS treatment, 96 h) of the same compound?
**A.** The value was 0.068 ± 0.014 % ID/g.

**Q.** What about the “% ID/g ± SD, Liver” value ([3]; PBS treatment, 96 h) of the same compound?
**A.** The value was 0.029 ± 0.011 % ID/g.

**Q.** What about the “% ID/g ± SD, Muscle” value ([3]; PBS treatment, 96 h) of the same compound?
**A.** Its value is 0.030 ± 0.010 % ID/g.

**Q.** And the “% ID/g ± SD, Spleen” value ([3]; PBS treatment, 96 h)?
**A.** The value was 0.014 ± 0.006 % ID/g.

**Q.** And the “% ID/g ± SD, Tumor” value ([3]; PBS treatment, 96 h)?
**A.** The value was 0.039 % ID/g and 0.039 ± 0.010 % ID/g.

**Q.** What about the “tumor visualization, planar gamma imaging” value ([3]; bortezomib 2 μg/g 24 hours before, 4 days postinjection) of the same compound?
**A.** The value was “clearly visible”.

**Q.** And the “time of peak tumor uptake” value ([3]; postinjection, pretreated with bortezomib)?
**A.** The value was 96 h.

**Q.** What about the “tumor uptake, planar gamma imaging” value ([3]; pretreated with PBS only) of the same compound?
**A.** Its value is “no tumor uptake was evident”.

**Q.** What about the “initial activity concentration in the mouse tumor” value ([4]; 2-h) of the same compound?
**A.** Its value is 1.95 % ID/g.

**Q.** What about the “tumor to muscle ratio” value ([4]; 2 hours post-infusion) of the same compound?
**A.** The value was 4.6.

**Q.** And the “tumor to muscle ratio” value ([4]; 24 hours post-infusion (peak))?
**A.** Its value is 205.

**Q.** And the “tumor to muscle ratio” value ([4]; 96 hours post-infusion)?
**A.** The value was 114.

**Q.** And the “% ID/g ± SD, Kidney” value [4, 7]?
**A.** The value was 0.033 ± 0.058 % ID/g.

**Q.** And the “% ID/g ± SD, Liver” value [4, 7]?
**A.** Its value is 0.013 ± 0.006 % ID/g.

**Q.** And the “% ID/g ± SD, Muscle” value [4, 7]?
**A.** Its value is 0.015 ± 0.014 % ID/g.

**Q.** What about the “% ID/g ± SD, Spleen” value [4, 7] of the same compound?
**A.** Its value is 0.027 ± 0.015 % ID/g.

**Q.** And the “% ID/g ± SD, Tumor” value [4, 7]?
**A.** Its value is 1.667 ± 0.681 % ID/g.

**Q.** And the tumor imaging ([4]; cell line engineered to express constitutively the EBV-TK)?
**A.** The tumor imaging was “readily imaged”.

**Q.** What about the “radioactivity levels in the tumor” value ([4]; from 2 hours until last time point at 96 hours) of the same compound?
**A.** Its value is “remained constant”.

**Q.** And the “range of uptake as % ID/g (color bar), SPECT-CT” value (KT gastric cancer (EBV); KT tumor, 72 hours p.i., following bortezomib)?
**A.** Its value is 0.68 % ID/g.

**Q.** What about the “% ID/g ± SD, Kidney” value (KT gastric cancer (EBV); [8]) of the same compound?
**A.** Its value is 0.090 ± 0.030 % ID/g.

**Q.** And the “% ID/g ± SD, Liver” value (KT gastric cancer (EBV); [8])?
**A.** The value was 0.050 ± 0.017 % ID/g.

**Q.** What about the “% ID/g ± SD, Muscle” value (KT gastric cancer (EBV); [8]) of the same compound?
**A.** The value was 0.080 ± 0.062 % ID/g.

**Q.** And the “% ID/g ± SD, Spleen” value (KT gastric cancer (EBV); [8])?
**A.** Its value is 0.080 ± 0.035 % ID/g.

**Q.** What about the “% ID/g ± SD, Tumor” value (KT gastric cancer (EBV); [8]) of the same compound?
**A.** Its value is 0.598 ± 0.472 % ID/g.

**Q.** What about the “range of uptake as % ID/g (color bar), SPECT-CT” value (BCBL1 lymphoma (KSHV); 48 hours p.i., following bortezomib) of the same compound?
**A.** Its value is 1.53 % ID/g.

**Q.** What about the tumor imaging (BCBL1 lymphoma (KSHV); after bortezomib) of the same compound?
**A.** The tumor imaging was “allowed imaging”.

**Q.** What about the “% ID/g ± SD, Kidney” value (BCBL1 lymphoma (KSHV); [9]) of the same compound?
**A.** Its value is 0.167 ± 0.038 % ID/g.

**Q.** What about the “% ID/g ± SD, Liver” value (BCBL1 lymphoma (KSHV); [9]) of the same compound?
**A.** Its value is 0.0617 ± 0.022 % ID/g.

**Q.** What about the “% ID/g ± SD, Muscle” value (BCBL1 lymphoma (KSHV); [9]) of the same compound?
**A.** The value was 0.078 ± 0.005 % ID/g.

**Q.** What about the “% ID/g ± SD, Spleen” value (BCBL1 lymphoma (KSHV); [9]) of the same compound?
**A.** The value was 0.064 ± 0.014 % ID/g.

**Q.** What about the “% ID/g ± SD, Tumor” value (BCBL1 lymphoma (KSHV); [9]) of the same compound?
**A.** Its value is 1.100 ± 0.361 % ID/g.
